Assay results published in PubChem BioAssay AID588641 (Sanford-Burnham Center for Chemical Genomics, 2011).
Activity calls are given as the source filed them. No rule for the calls is given here.

Target: alkaline phosphatase, placental type (human)
Experiment: inhibitors of placental alkaline phosphatase – biochemical, human PLAP isozyme, set 2, selectivity assay for mouse IAP inhibitor project, SAR follow-up (AID 588641)
Conditions: purified human placental alkaline phosphatase, enzyme activity

| IC50 | SMILES |
| --- | --- |
| > 100 µM (inactive) | Cc1ccccc1CNC(=O)CCCNS(=O)(=O)c1ccc2[nH]c(=O)oc2c1 |
| > 100 µM (inactive) | CCOc1ccc(CNC(=O)C2CCCN(S(=O)(=O)c3ccc4[nH]c(=O)oc4c3)C2)cc1OC (configuration not stated) |
| > 100 µM (inactive) | COc1cc(C(=O)N/N=C/c2c(F)cccc2Cl)cc(OC)c1OC |
| > 100 µM (inactive) | CSc1cccc(NC(=O)C2CCCN(S(=O)(=O)c3ccc4c(c3)oc(=O)n4C)C2)c1 (configuration not stated) |
| > 100 µM (inactive) | COc1cccc(CNS(=O)(=O)c2ccc3[nH]c(=O)oc3c2)c1 |
| > 100 µM (inactive) | O=C(N/N=C/c1c(F)cccc1Cl)c1cc(O)c(O)c(O)c1 |
| > 100 µM (inactive) | CC(=NNC(=O)c1ccccc1OCCOc1ccccc1)c1ccccc1F |
| > 100 µM (inactive) | COc1ccccc1CNC(=O)CCNS(=O)(=O)c1ccc2[nH]c(=O)oc2c1 |
| > 100 µM (inactive) | COc1ccc(CNS(=O)(=O)c2ccc3[nH]c(=O)oc3c2)c(OC)c1 |
| > 100 µM (inactive) | CCOc1cc(C(=O)N/N=C/c2c(F)cccc2Cl)cc(OCC)c1OCC |
| > 100 µM (inactive) | O=C(CCNS(=O)(=O)c1ccc2[nH]c(=O)oc2c1)NCc1cccc(Cl)c1 |
| > 100 µM (inactive) | O=C(N/N=C/c1cc(Br)ccc1F)c1ccc(O)cc1 |
| > 100 µM (inactive) | O=C(NCc1ccccc1)C1CCCN(S(=O)(=O)c2ccc3[nH]c(=O)oc3c2)C1 (configuration not stated) |
| > 100 µM (inactive) | COc1ccc(CNC(=O)CCNS(=O)(=O)c2ccc3ccccc3c2)c(OC)c1 |

The next lines start with the compound.

| SMILES | IC50 |
| --- | --- |
| O=C(CCNS(=O)(=O)c1ccc2[nH]c(=O)oc2c1)NCc1ccccc1 | > 100 µM (inactive) |
| O=C(N/N=C/c1ccccc1Cl)c1cc(O)c(O)c(O)c1 | > 100 µM (inactive) |
| N#Cc1cccc(NS(=O)(=O)c2ccc3[nH]c(=O)oc3c2)c1 | > 100 µM (inactive) |
| CCOc1cc(C(=O)N/N=C/c2ccccc2F)cc(OCC)c1OCC | > 100 µM (inactive) |
| O=C(CCNS(=O)(=O)c1ccc2[nH]c(=O)oc2c1)NCc1ccc(Cl)cc1 | > 100 µM (inactive) |
| O=C(NN=Cc1ccccc1F)c1ccc(O)cc1 | > 100 µM (inactive) |
| O=c1[nH]c2ccc(S(=O)(=O)NCCc3ccc4c(c3)OCO4)cc2o1 | > 100 µM (inactive) |
| COc1cccc(/C=N/NC(=O)c2cc(O)c(O)c(O)c2)c1O | > 100 µM (inactive) |
| Cc1ccc(NC(=O)CCNS(=O)(=O)c2ccc3[nH]c(=O)oc3c2)cc1C | > 100 µM (inactive) |
| O=C(CCNS(=O)(=O)c1ccc2[nH]c(=O)oc2c1)NCc1ccc(O)c(O)c1 | > 100 µM (inactive) |
| Cc1ccc(NC(=O)CCNS(=O)(=O)c2ccc3c(c2)oc(=O)n3C)c(C)c1 | > 100 µM (inactive) |
| COc1ccc(CNC(=O)C2CCCN(S(=O)(=O)c3ccc4[nH]c(=O)oc4c3)C2)cc1 (configuration not stated) | > 100 µM (inactive) |
| COc1ccc(CNC(=O)CCCNS(=O)(=O)c2ccc3[nH]c(=O)oc3c2)c(OC)c1 | > 100 µM (inactive) |
| O=C(CCNS(=O)(=O)c1ccc2[nH]c(=O)oc2c1)NCc1ccccc1Cl | > 100 µM (inactive) |
| O=C(CCCNS(=O)(=O)c1ccc2[nH]c(=O)oc2c1)NCc1ccccc1Cl | > 100 µM (inactive) |
| O=C(N/N=C/c1ccccc1F)c1ccc(O)cc1O | > 100 µM (inactive) |
| O=C(N/N=C/c1c(F)cccc1Cl)c1ccc(O)cc1O | > 100 µM (inactive) |
| CCc1ccc(NC(=O)CCNS(=O)(=O)c2ccc3c(c2)oc(=O)n3C)cc1 | > 100 µM (inactive) |
| O=C(N/N=C/c1c(F)cccc1Cl)c1ccc(O)cc1 | > 100 µM (inactive) |
| O=C(N/N=C/c1ccccc1C(F)(F)F)c1cc(O)c(O)c(O)c1 | > 100 µM (inactive) |
| O=C(CCNS(=O)(=O)c1ccc2[nH]c(=O)oc2c1)NCc1ccc(F)cc1 | > 100 µM (inactive) |
| COc1ccc(CNC(=O)CCNS(=O)(=O)c2ccc3[nH]c(=O)oc3c2)c(OC)c1 | > 100 µM (inactive) |
| Cc1ccc(C)c(NC(=O)C2CCCN(S(=O)(=O)c3ccc4c(c3)oc(=O)n4C)C2)c1 (configuration not stated) | > 100 µM (inactive) |
